Test results from PMC11012124, “Synthesis of Novel Triazine-Based Chalcones and 8,9-dihydro-7H-pyrimido[4,5-b][1,4]diazepines as Potential Leads in the Search of Anticancer, Antibacterial and Antifungal Agents” (International Journal of Molecular Sciences, 2024).

Legend:
60 cancer cell lines = test: NCI-60 one-dose screen (10 μM); assay type: cell-based; conditions: Homo sapiens; one dose of 10 μM, mean over 60 cancer cell lines; read-out: Mean Growth Percent (MGP)
From the text: Additionally, the mean of the growth percentages (MGP) of each compound against all the 60 cancer cell lines is also reported, which is used as one of the selection criteria to continue with tests at five concentration doses.

MOLT-4 = test: cells; conditions: Homo sapiens, MOLT-4, 48 h
RPMI-8226 = test: cells; conditions: Homo sapiens, RPMI-8226, 48 h
A549/ATCC = test: cells; conditions: Homo sapiens, A549, 48 h
EKVX = test: cells; conditions: Homo sapiens, 48 h
HOP-62 = test: cells; conditions: Homo sapiens, HOP-62, 48 h
HOP-92 = test: cells; conditions: Homo sapiens, HOP-92, 48 h
NCI-H226 = test: cells; conditions: Homo sapiens, NCI-H226, 48 h
NCI-H23 = test: cells; conditions: Homo sapiens, NCI-H23, 48 h
NCI-H322M = test: cells; conditions: Homo sapiens, 48 h
COLO 205 = test: cells; conditions: Homo sapiens, COLO 205, 48 h
HCC-2998 = test: cells; conditions: Homo sapiens, HCC 2998, 48 h
HCT-116 = test: cells; conditions: Homo sapiens, HCT-116, 48 h
HCT-15 = test: cells; conditions: Homo sapiens, HCT-15, 48 h
HT29 = test: cells; conditions: Homo sapiens, HT-29, 48 h
SF-268 = test: cells; conditions: Homo sapiens, SF-268, 48 h
SF-295 = test: cells; conditions: Homo sapiens, SF-295, 48 h
SF-539 = test: cells; conditions: Homo sapiens, SF-539, 48 h
SNB-19 = test: cells; conditions: Homo sapiens, SNB-19, 48 h
U251 = test: cells; conditions: Homo sapiens, U-251, 48 h
LOX IMVI = test: cells; conditions: Homo sapiens, 48 h
M14 = test: cells; conditions: Homo sapiens, M14, 48 h
SK-MEL-5 = test: cells; conditions: Homo sapiens, SK-MEL-5, 48 h
UACC-257 = test: cells; conditions: Homo sapiens, UACC-257, 48 h
UACC-62 = test: cells; conditions: Homo sapiens, UACC-62, 48 h
OVCAR-3 = test: cells; conditions: Homo sapiens, OVCAR-3, 48 h
786-0 = test: cells; conditions: Homo sapiens, 786-0, 48 h
A498 = test: cells; conditions: Homo sapiens, A498, 48 h
ACHN = test: cells; conditions: Homo sapiens, 48 h
RXF 393 = test: cells; conditions: Homo sapiens, RXF 393, 48 h
UO-31 = test: cells; conditions: Homo sapiens, UO-31, 48 h
PC-3 = test: cells; conditions: Homo sapiens, PC-3, 48 h
MDA-MB-231/ATCC = test: cells; conditions: Homo sapiens, MDA-MB-231, 48 h
HS 578T = test: cells; conditions: Homo sapiens, 48 h
BT-549 = test: cells; conditions: Homo sapiens, BT-549, 48 h
MDA-MB-468 = test: cells; conditions: Homo sapiens, MDA-MB-468, 48 h

CN(C)c1nc(NCCNS(=O)(=O)c2ccc(C3=Nc4c(N)nc(N)nc4NC(c4ccc(C(F)(F)F)cc4)C3)cc2)nc(N2CCOCC2)n1 (centres unmarked) [30g]
activity at 10 µM (60 cancer cell lines): 38.8% | GI50 (MOLT-4): 17.3 µM | CC50 (MOLT-4; read-out: LC50): > 100 µM | GI50 (RPMI-8226): 11.2 µM | CC50 (RPMI-8226; read-out: LC50): > 100 µM | GI50 (A549/ATCC): 51.3 µM | CC50 (A549/ATCC; read-out: LC50): > 100 µM | GI50 (EKVX): 47.2 µM | CC50 (EKVX; read-out: LC50): > 100 µM | GI50 (HOP-62): 50.7 µM | CC50 (HOP-62; read-out: LC50): > 100 µM | GI50 (HOP-92): 7.48 µM | CC50 (HOP-92; read-out: LC50): > 100 µM | GI50 (NCI-H226): 17.6 µM | CC50 (NCI-H226; read-out: LC50): > 100 µM | GI50 (NCI-H23): 37.6 µM | CC50 (NCI-H23; read-out: LC50): > 100 µM | GI50 (NCI-H322M): 45.4 µM | CC50 (NCI-H322M; read-out: LC50): > 100 µM | GI50 (COLO 205): 16.5 µM | CC50 (COLO 205; read-out: LC50): 76.2 µM | GI50 (HCC-2998): 20.2 µM | CC50 (HCC-2998; read-out: LC50): > 100 µM | GI50 (HCT-116): 41.9 µM | CC50 (HCT-116; read-out: LC50): > 100 µM | GI50 (HCT-15): 30.9 µM | CC50 (HCT-15; read-out: LC50): > 100 µM | GI50 (HT29): 19.8 µM | CC50 (HT29; read-out: LC50): > 100 µM | GI50 (SF-268): 19.9 µM | CC50 (SF-268; read-out: LC50): > 100 µM | GI50 (SF-295): 21.1 µM | CC50 (SF-295; read-out: LC50): > 100 µM | GI50 (SF-539): 22.5 µM | CC50 (SF-539; read-out: LC50, SF-539, 48 h): > 100 µM | GI50 (SNB-19): 30 µM | CC50 (SNB-19; read-out: LC50): > 100 µM | GI50 (U251; U251, 48 h): 24.2 µM | CC50 (U251; read-out: LC50): > 100 µM | GI50 (LOX IMVI): 17.1 µM | CC50 (LOX IMVI; read-out: LC50, LOX IMVI, 48 h): 64.1 µM | GI50 (M14): 22 µM | CC50 (M14; read-out: LC50): > 100 µM | GI50 (SK-MEL-5): 15.9 µM | CC50 (SK-MEL-5; read-out: LC50): 57.1 µM | GI50 (UACC-257): 20.4 µM | CC50 (UACC-257; read-out: LC50): > 100 µM | GI50 (UACC-62): 16.4 µM | CC50 (UACC-62; read-out: LC50): 81.1 µM | GI50 (OVCAR-3): 53.9 µM | CC50 (OVCAR-3; read-out: LC50): > 100 µM | GI50 (786-0): 20.8 µM | CC50 (786-0; read-out: LC50): > 100 µM | GI50 (A498): 24.1 µM | CC50 (A498; read-out: LC50): > 100 µM | GI50 (ACHN): 64.4 µM | CC50 (ACHN; read-out: LC50): > 100 µM | GI50 (RXF 393): 10.3 µM | CC50 (RXF 393; read-out: LC50): > 100 µM | GI50 (UO-31): 100 µM | CC50 (UO-31; read-out: LC50): > 100 µM | GI50 (PC-3): 24.6 µM | CC50 (PC-3; read-out: LC50): > 100 µM | GI50 (MDA-MB-231/ATCC): 16.9 µM | CC50 (MDA-MB-231/ATCC; read-out: LC50): > 100 µM | GI50 (HS 578T): 19.2 µM | CC50 (HS 578T; read-out: LC50): > 100 µM | GI50 (BT-549): 13.8 µM | CC50 (BT-549; read-out: LC50): 73.1 µM | GI50 (MDA-MB-468): 13.7 µM | CC50 (MDA-MB-468; read-out: LC50): 69.5 µM
